Results published in article PMC10607100, “Anticancer and Antiphytopathogenic Activity of Fluorinated Isatins and Their Water-Soluble Hydrazone Derivatives” (International Journal of Molecular Sciences, 2023).
Where two headings read alike, the source gives them in different places.

What was measured:
Type in all cases: cell-based
[1] = system: five representative phytopathogens; experiment: Agar-well diffusion, bactericidal activity over the panel of phytopathogens
Description: (§1) Plant pathogenic bacterial strains Micrococcus luteus B-109, Pectobacterium atrosepticum 1043, Pectobacterium carotovorum subsp. carotovorum MI, Pseudomonas fluorescens EL-2.1, and Xanthomonas campestris B-610 and the fungal strain Fusarium oxysporum IBPPM 543 were from the Collection of Rhizosphere Microorganisms, IBPPM RAS (WFCC no. 975, WDCM no. 1021) (CM IBPPM, http://collection.ibppm.ru). The pathogenic fungus Phytophthora cactorum VKM F-985, provided by the All-Russian Collection of Microorganisms (VKM) and deposited at the A.E. Favorsky Irkutsk Institute of Chemistry, SB RAS, was also used as a test organism. Bacteria M. luteus, P. carotovorum subsp. carotovorum, P. atrosepticum, and P. fluorescens were grown in a meat–peptone medium (BP), and X. campestris was grown in the medium with glucose, yeast extract, and calcium carbonate (GYCa). Solid media contained Bacto agar (18 g/L); pH was adjusted to 7.2–7.4. All bacterial cultures were grown at 28 °C. The mycelial cultures of F. oxysporum and P. cactorum were grown on a glucose–peptone–yeast (GPY) nutrient medium at 27 °C. For inoculum preparation, both fungal strains were initially grown on the agar GPY in Petri dishes and then transferred into the seed medium by punching out 5 mm of the agar plate culture with a self-designed cutter.
(§2) The antibacterial and antifungal activities of the compounds were explored using the agar-well diffusion method and the technique of mycelial radial growth inhibition. The method of diffusion in agar (measuring the diameter of growth inhibition zones) was used to determine the bactericidal activity. The 6-mm wells were made in agar medium (GYCa for Xanthomonas campestris or BP for other bacteria). Bacterial suspensions were distributed over the agar surface, and the tested compound’s solution (150 μL) was added to each well. The width of growth inhibition zones around the wells was determined after incubation for 36–40 h.

Micrococcus luteus B-109 = experiment: Agar-well diffusion, bactericidal activity; settings: Micrococcus luteus
Description: as §1, §2

[2] = system: Pectobacterium atrosepticum 1043; experiment: Agar-well diffusion, bactericidal activity; settings: Pectobacterium atrosepticum, 1043, 2 mM/L
Description: as §1, §2

[3] = system: Pectobacterium carotovorum subsp. carotovorum MI; experiment: Agar-well diffusion, bactericidal activity; settings: Pectobacterium carotovorum, 2 mM/L
Description: as §1, §2

[4] = system: Pseudomonas fluorescens EL-2.1; experiment: Agar-well diffusion, bactericidal activity; settings: Pseudomonas fluorescens, EL2.1, 2 mM/L
Description: as §1, §2

[5] = system: Xanthomonas campestris B-610; experiment: Agar-well diffusion, bactericidal activity; settings: Xanthomonas campestris
Experimental: Bacteria M. luteus, P. carotovorum subsp. carotovorum, P. atrosepticum, and P. fluorescens were grown in a meat–peptone medium (BP), and X. campestris was grown in the medium with glucose, yeast extract, and calcium carbonate (GYCa). Solid media contained Bacto agar (18 g/L); pH was adjusted to 7.2–7.4. […] For inoculum preparation, both fungal strains were initially grown on the agar GPY in Petri dishes and then transferred into the seed medium by punching out 5 mm of the agar plate culture with a self-designed cutter.
as §2

[6] = system: Phytophthora cactorum VKM F-985; experiment: Mycelial radial growth inhibition; settings: Phytophthora cactorum; for inhibition of growth at 3 µM: 3 nmol/mL; for inhibition of growth at 3 µM / inhibition of growth at 7 µM / inhibition of growth at 20 µM / inhibition of growth / inhibition of growth at 40 µM: read-out: Inhibition value, I (%); for inhibition of growth at 7 µM: 7 nmol/mL; for inhibition of growth at 20 µM: 20 nmol/mL; for inhibition of growth: 27 nmol/mL; for inhibition of growth at 40 µM: 40 nmol/mL
Description: as §1
(§3) For the fungicidal activity analysis, radial growth (colony diameters) of the fungi on a solid medium in the absence and in the presence of the compounds 5a–e and 7a–c solutions at various concentrations were compared. The method consisted of the following: A sterile GPY agar medium (20.0 mL), which was melted and then allowed to cool to approximately 60 °C, was mixed with the precisely measured volumes of the solutions under question and poured into a sterile Petri dish (90 mm i.d.). After the solidification of GPY agar, the media were inoculated by the fungus using 10-day-old cultures of F. oxysporum or P. cactorum. The inoculation was conducted by transferring a 5-mm (i.d.) GPY-agar block covered with mycelium to the center of the Petri dish, followed by incubation in a thermostat at 27 °C. The fungicidal effect was scored by the size of the mycelium colony on a Petri dish compared to the control without fungicidal admixtures to GPY agar. Each treatment was performed in at least four replicates in two independent experiments. The observation period ended when the control Petri dish was filled with mycelium (usually after 12 days). […] The solutions of the compounds were prepared with a concentration of 2 mmol/L (stock solution). For comparison, test compounds were also commonly applied as disinfecting agents, and antibiotics were used as a positive control.

[7] = system: Fusarium oxysporum IBPPM 543; experiment: Mycelial radial growth inhibition; settings: Fusarium oxysporum; for inhibition of growth at 1 µM: 1 nmol/mL; for inhibition of growth at 1 µM / inhibition of growth at 5 µM / inhibition of growth at 30 µM / inhibition of growth at 40 µM: read-out: Inhibition value, I (%); for inhibition of growth at 5 µM: 5 nmol/mL; for inhibition of growth at 30 µM: 30 nmol/mL; for inhibition of growth at 40 µM: 40 nmol/mL
Description: as §1, §3

[8] = Table S3, read-out: Inhibition zone width (mm), not less
[9] = 120 h, age of the fungus 5 days
[10] = 168 h, age of the fungus 7 days
[11] = 216 h, age of the fungus 9 days
[12] = IBPPM543, 72 h, age of the fungus 3 days
[13] = IBPPM543, 120 h, age of the fungus 5 days
[14] = IBPPM543, 168 h, age of the fungus 7 days
[15] = IBPPM543, 216 h, age of the fungus 9 days

## Cc1ccc[n+](CC(=O)N/N=C2\C(=O)N(Cc3ccccc3F)c3ccccc32)c1C [Compound 7a]
[1]; 36 h, 2 mM solutions, dependent on the test system used, read-out: inhibition zone width (mm), range over the test systems
  zone of inhibition at 2000 µM: 2 to 6 mm
[1]; Table S2
  bactericidal activity: moderate bactericidal activity
[1]; against P. carotovorum subsp. carotovorum MI, Ps. fluorescens EL-2.1 and X. campestris B-610
  inhibition zone: 5–6 mm
Micrococcus luteus B-109; B109, 2 mM/L, average of 3 experiments, read-out: width of the inhibition zone (mm), M. luteus
  zone of inhibition at 2000 µM: 2 mm
Micrococcus luteus B-109; B109, Table S3, 2 mM/L, read-out: Inhibition zone width (mm), not less
  zone of inhibition at 2000 µM: ≥ 2 mm
[2]; average of 3 experiments, read-out: width of the inhibition zone (mm), P. atrosepticum
  zone of inhibition at 2000 µM: 3 mm
[2]; [8]
  zone of inhibition at 2000 µM: ≥ 3 mm
[3]; average of 3 experiments, read-out: width of the inhibition zone (mm), P. carotovorum subsp. carotovorum
  zone of inhibition at 2000 µM: 6 mm
[3]; [8]
  zone of inhibition at 2000 µM: ≥ 6 mm
[4]; average of 3 experiments, read-out: width of the inhibition zone (mm), Ps. fluorescens
  zone of inhibition at 2000 µM: 5 mm
[4]; [8]
  zone of inhibition at 2000 µM: ≥ 5 mm
[5]; B610, 2 mM/L, average of 3 experiments, read-out: width of the inhibition zone (mm), X. campestris
  zone of inhibition at 2000 µM: 5 mm
[5]; B610, Table S3, 2 mM/L, read-out: Inhibition zone width (mm), not less
  zone of inhibition at 2000 µM: ≥ 5 mm
[6]; 72 h, age of the fungus 3 days
  inhibition of growth at 3 µM: 5%
  inhibition of growth at 7 µM: 17%
  inhibition of growth at 20 µM: 21%
  inhibition of growth: 27%
  inhibition of growth at 40 µM: 42%
[6]; 120 h, day 5, read-out: EC50, µg/mL at Day 5, P. cactorum
  EC50: 22.9 µg/mL
[6]; [9]
  inhibition of growth at 3 µM: 12%
  inhibition of growth at 7 µM: 21%
  inhibition of growth at 20 µM: 25%
  inhibition of growth: 29%
  inhibition of growth at 40 µM: 45%
[6]; [10]
  inhibition of growth at 3 µM: 4%
  inhibition of growth at 7 µM: 10%
  inhibition of growth at 20 µM: 16%
  inhibition of growth: 20%
  inhibition of growth at 40 µM: 38%
[6]; [11]
  inhibition of growth at 3 µM: 4%
  inhibition of growth at 7 µM: 6%
  inhibition of growth at 20 µM: 13%
  inhibition of growth: 16%
  inhibition of growth at 40 µM: 37%
[7]; [12]
  inhibition of growth at 1 µM: 9%
  inhibition of growth at 5 µM: 43%
  inhibition of growth at 30 µM: 51%
  inhibition of growth at 40 µM: 61%
[7]; IBPPM543, 120 h, day 5, read-out: EC50, µg/mL at Day 5, F. oxysporum
  EC50: 7.25 µg/mL
[7]; [13]
  inhibition of growth at 1 µM: 4%
  inhibition of growth at 5 µM: 44%
  inhibition of growth at 30 µM: 59%
  inhibition of growth at 40 µM: 65%
[7]; [14]
  inhibition of growth at 1 µM: 8%
  inhibition of growth at 5 µM: 41%
  inhibition of growth at 30 µM: 56%
  inhibition of growth at 40 µM: 69%
[7]; [15]
  inhibition of growth at 1 µM: 0%
  inhibition of growth at 5 µM: 33%
  inhibition of growth at 30 µM: 55%
  inhibition of growth at 40 µM: 64%
